# Reference: publication PMC5278571, “Optimal doses of caspofungin during continuous venovenous hemodiafiltration in critically ill patients” (Critical Care, 2017)
# Like-named read-outs stand apart in the source and are kept apart here.
# Assay: Pharmacokinetics of caspofungin during continuous venovenous hemodiafiltration (CVVHD)
# Assay type: in vivo, human
# Details: for Vd / t½ / AUC0-24 Arterial / AUC0-24 Difference venous to arterial (%) / AUC0-24 Venous / Cl / Cmax / Ctrough: steady state, CVVHD; for t½: elimination
# Protocol: The aim of the present study was to describe the pharmacokinetics of caspofungin in 12 critically ill adult patients with suspected or proven invasive candidiasis who were receiving continuous venovenous hemodiafiltration (CVVHD).
# CVVHD was performed using a polysulfone hemofilter (Fresenius, Germany). Caspofungin was administered at usual doses. Pre-filter and post-filter blood, ultradiafiltrate, and urine samples were collected at steady state on day 3 or later, before the dose infusion started, and 0.5, 1, 1.5, 2, 4, 6, 8, and 24 h after the infusion ended.
structure (smiles),measurement,setting,value
CC[C@H](C)C[C@H](C)CCCCCCCCC(=O)N[C@H]1C[C@@H](O)[C@@H](NCCN)NC(=O)[C@@H]2[C@@H](O)CCN2C(=O)[C@H]([C@H](O)CCN)NC(=O)[C@H]([C@H](O)[C@@H](O)c2ccc(O)cc2)NC(=O)[C@@H]2C[C@@H](O)CN2C(=O)[C@H]([C@@H](C)O)NC1=O [caspofungin],Vd,"human, in vivo, iv, Mean ± SD of 12 patients, SD, read-out: Vd",16.4 ± 5.4 L
same,Mean concentration in the post-filter line compared with the pre-filter line,"n = 12 patients, rules out adsorption to the filter",slightly higher
same,t½,patient 1,27.4 h
same,AUC0-24 Arterial,patient 1,140.0 µg·h/mL
same,AUC0-24 Difference venous to arterial (%),patient 1,29%
same,AUC0-24 Venous,patient 1,180.0 µg·h/mL
same,Cl,patient 1,0.356 L/h
same,Cmax,patient 1,12500 ng/mL
same,Ctrough,patient 1,3470 ng/mL
same,Vd,patient 1,14.1 L
same,t½,patient 2,21.0 h
same,AUC0-24 Arterial,patient 2,88.3 µg·h/mL
same,AUC0-24 Difference venous to arterial (%),patient 2,20%
same,AUC0-24 Venous,patient 2,106.0 µg·h/mL
same,Cl,patient 2,0.567 L/h
same,Cmax,patient 2,7800 ng/mL
same,Ctrough,patient 2,2100 ng/mL
same,Vd,patient 2,17.1 L
same,t½,patient 3,18.8 h
same,AUC0-24 Arterial,patient 3,124.0 µg·h/mL
same,AUC0-24 Difference venous to arterial (%),patient 3,23%
same,AUC0-24 Venous,patient 3,152.0 µg·h/mL
same,Cl,patient 3,0.402 L/h
same,Cmax,patient 3,8800 ng/mL
same,Ctrough,patient 3,3100 ng/mL
same,Vd,patient 3,10.9 L
same,t½,patient 4,24.3 h
same,AUC0-24 Arterial,patient 4,65.4 µg·h/mL
same,AUC0-24 Difference venous to arterial (%),patient 4,18%
same,AUC0-24 Venous,patient 4,77.4 µg·h/mL
same,Cl,patient 4,0.765 L/h
same,Cmax,patient 4,6900 ng/mL
same,Ctrough,patient 4,1300 ng/mL
same,Vd,patient 4,26.8 L
same,t½,patient 5,16.5 h
same,AUC0-24 Arterial,patient 5,68.0 µg·h/mL
same,AUC0-24 Difference venous to arterial (%),patient 5,32%
same,AUC0-24 Venous,patient 5,90.0 µg·h/mL
same,Cl,patient 5,0.735 L/h
same,Cmax,patient 5,4800 ng/mL
same,Ctrough,patient 5,1500 ng/mL
same,Vd,patient 5,17.5 L
same,t½,patient 6,13.8 h
same,AUC0-24 Arterial,patient 6,102.0 µg·h/mL
same,AUC0-24 Difference venous to arterial (%),patient 6,5%
same,AUC0-24 Venous,patient 6,107.0 µg·h/mL
same,Cl,patient 6,0.683 L/h
same,Cmax,patient 6,10700 ng/mL
same,Ctrough,patient 6,2500 ng/mL
same,Vd,patient 6,13.6 L
same,t½,patient 7,13.6 h
same,AUC0-24 Arterial,patient 7,65.6 µg·h/mL
same,AUC0-24 Difference venous to arterial (%),patient 7,20%
same,AUC0-24 Venous,patient 7,78.8 µg·h/mL
same,Cl,patient 7,0.762 L/h
same,Cmax,patient 7,8300 ng/mL
same,Ctrough,patient 7,1600 ng/mL
same,Vd,patient 7,15.0 L
same,t½,patient 8,19.3 h
same,AUC0-24 Arterial,patient 8,100.0 µg·h/mL
same,AUC0-24 Difference venous to arterial (%),patient 8,13%
same,AUC0-24 Venous,patient 8,113.0 µg·h/mL
same,Cl,patient 8,0.499 L/h
same,Cmax,patient 8,9500 ng/mL
same,Ctrough,patient 8,2700 ng/mL
same,Vd,patient 8,13.9 L
same,t½,patient 9,14.3 h
same,AUC0-24 Arterial,patient 9,102.0 µg·h/mL
same,AUC0-24 Difference venous to arterial (%),patient 9,25%
same,AUC0-24 Venous,patient 9,127.0 µg·h/mL
same,Cl,patient 9,0.685 L/h
same,Cmax,patient 9,9200 ng/mL
same,Ctrough,patient 9,2300 ng/mL
same,Vd,patient 9,14.1 L
same,t½,patient 10,15.0 h
same,AUC0-24 Arterial,patient 10,121.0 µg·h/mL
same,AUC0-24 Difference venous to arterial (%),patient 10,17%
same,AUC0-24 Venous,patient 10,142.0 µg·h/mL
same,Cl,patient 10,0.578 L/h
same,Cmax,patient 10,12600 ng/mL
same,Ctrough,patient 10,2900 ng/mL
same,Vd,patient 10,12.5 L
same,t½,patient 11,26.2 h
same,AUC0-24 Arterial,patient 11,190.0 µg·h/mL
same,AUC0-24 Difference venous to arterial (%),patient 11,18%
same,AUC0-24 Venous,patient 11,224.0 µg·h/mL
same,Cl,patient 11,0.368 L/h
same,Cmax,patient 11,11500 ng/mL
same,Ctrough,patient 11,4000 ng/mL
same,Vd,patient 11,13.9 L
same,t½,patient 12,16.5 h
same,AUC0-24 Arterial,patient 12,60.1 µg·h/mL
same,AUC0-24 Difference venous to arterial (%),patient 12,24%
same,AUC0-24 Venous,patient 12,74.5 µg·h/mL
same,Cl,patient 12,1.165 L/h
same,Cmax,patient 12,8500 ng/mL
same,Ctrough,patient 12,1900 ng/mL
same,Vd,patient 12,27.7 L
same,Caspofungin in ultradiafiltrate samples,"ultradiafiltrate, CVVHD with polysulfone hemofilter, HPLC",negligible
same,Caspofungin in urine samples,"urine, patients on CVVHD, HPLC",negligible
